Results from paper PMC6917776, “Discovery of a chemical probe for PRDM9” (Nature Communications, 2019).
Read-outs that look alike come from different tables or passages of the source.

How the values were obtained:
[1] = tested on: 32 protein, DNA and RNA methyltransferases; assay: Methyltransferase selectivity assay (whole panel); format: biochemical; conditions: tested at 1 µM and 10 µM of compounds
Description: Selectivity against methyltransferases were determined as described previously. Details of the assays are described in the supplementary methods. […]
were tested at (circle) 1 µM and (triangle) 10 µM of compounds. PRDM9 was the only methyltransferase in this panel of MTs that was inhibited by MRK -740.
Effect of both compounds on PRDM7 is presented in figure 1D in the main text. Each experiment was performed at two concentrations (1 and 10 µM) of compounds and in duplicate (n=2). Source data are provided as a Source Data file .
(1 picture or pasted object on this page, not shown here)
(§1) Methyltransferase selectivity assay1
The effect of chemical probes and negative controls on the methyltransferase activities of protein, DNA and RNA methyltransferases was tested by radiometric assays using 3H-SAM. For proteins such as MLL1 trimeric, MLL3 pentameric, EZH1 (PRC2) pentameric, and EZH2 (PRC2) trimeric complexes, as well as G9a, GLP, SUV39H1, SUV39H2, SUV420H1, SUV420H2, SETD2, SETD8, SETDB1, SETD7, PRMT1, PRMT3, PRMT4, PRMT5/ MEP50 complex, PRMT6, PRMT7, PRMT8, PRMT9, PRDM9, SMYD2, SMYD3, DNMT1, and BCDIN3D the incorporation of a tritium-labeled methyl group into biotinylated substrate was monitored using scintillation proximity assay (SPA). […] The counts per minute (CPM) was measured on a TopCount plate reader. […]

[2] = molecular target: T1, NSD3 (Homo sapiens, UniProt Q9BZ95); assay: Methyltransferase selectivity assay (filter-based, nucleosome substrate); format: biochemical; conditions: for activity at 1 µM: 1µM compound; for Activity % / activity at 10 µM: 10µM compound; for Activity %: Exp1, Exp2, 10 µM
T1 construct: purchased Structural Genomics Consortium (SGC Toronto) in-house methyltransferase panel
T1 sequence (Q9BZ95 1-1437): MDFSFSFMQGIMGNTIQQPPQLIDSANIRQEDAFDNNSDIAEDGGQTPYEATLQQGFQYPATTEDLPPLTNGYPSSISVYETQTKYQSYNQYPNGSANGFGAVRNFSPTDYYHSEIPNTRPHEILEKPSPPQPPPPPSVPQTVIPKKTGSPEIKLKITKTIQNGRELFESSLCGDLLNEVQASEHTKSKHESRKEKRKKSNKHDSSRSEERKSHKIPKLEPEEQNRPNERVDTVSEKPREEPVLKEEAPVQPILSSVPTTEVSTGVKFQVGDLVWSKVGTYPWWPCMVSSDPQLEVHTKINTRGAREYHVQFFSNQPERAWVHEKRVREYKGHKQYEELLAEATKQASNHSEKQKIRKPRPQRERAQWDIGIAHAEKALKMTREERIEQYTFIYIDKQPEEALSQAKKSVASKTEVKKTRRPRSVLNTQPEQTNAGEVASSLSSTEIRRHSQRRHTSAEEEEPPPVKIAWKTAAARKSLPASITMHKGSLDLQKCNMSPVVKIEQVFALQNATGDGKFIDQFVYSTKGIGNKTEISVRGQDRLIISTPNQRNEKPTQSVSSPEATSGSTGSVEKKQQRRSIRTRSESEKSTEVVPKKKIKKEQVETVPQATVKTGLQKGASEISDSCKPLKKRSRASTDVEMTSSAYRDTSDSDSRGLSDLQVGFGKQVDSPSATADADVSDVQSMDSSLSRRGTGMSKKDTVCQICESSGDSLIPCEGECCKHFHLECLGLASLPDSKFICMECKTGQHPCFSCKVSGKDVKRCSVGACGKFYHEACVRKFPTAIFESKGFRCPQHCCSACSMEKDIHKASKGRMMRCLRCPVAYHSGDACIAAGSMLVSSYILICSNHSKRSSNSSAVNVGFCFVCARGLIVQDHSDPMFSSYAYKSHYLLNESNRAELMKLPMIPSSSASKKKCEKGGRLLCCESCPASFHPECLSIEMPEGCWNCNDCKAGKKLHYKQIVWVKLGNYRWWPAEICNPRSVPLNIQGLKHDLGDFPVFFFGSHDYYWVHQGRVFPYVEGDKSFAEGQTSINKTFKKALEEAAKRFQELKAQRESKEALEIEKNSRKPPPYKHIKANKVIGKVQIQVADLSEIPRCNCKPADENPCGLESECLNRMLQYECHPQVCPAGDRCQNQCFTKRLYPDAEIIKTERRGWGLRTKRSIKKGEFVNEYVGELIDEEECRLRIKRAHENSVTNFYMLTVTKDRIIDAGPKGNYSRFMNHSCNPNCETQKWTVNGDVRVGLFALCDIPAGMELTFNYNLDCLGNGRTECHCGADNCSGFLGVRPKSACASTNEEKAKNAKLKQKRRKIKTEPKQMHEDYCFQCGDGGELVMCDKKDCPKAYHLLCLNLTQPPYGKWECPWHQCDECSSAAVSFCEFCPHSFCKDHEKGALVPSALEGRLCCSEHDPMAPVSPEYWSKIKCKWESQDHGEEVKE
Description: Selectivity against methyltransferases were determined as described previously. Details of the assays are described in the supplementary methods.
as §1
The effect of chemical probes and negative controls on the methyltransferase activities of protein, DNA and RNA methyltransferases was tested by radiometric assays using 3H-SAM. […]
The CPM in the absence of compound or enzyme was defined as 100% activity and background (0%), respectively, for each dataset. […]
For proteins which were tested with nucleosome as substrate such as DOT1L, NSD1, NSD2, NSD3, and ASH1L, or unbiotinylated Poly(2′-deoxyinosinic-2′-deoxycytidylic acid) (Cat# 81349-500UG, Sigma Aldrich) such as DNMT3A/3L, and DNMT3B/3L, a filter-based assay was used. In this assay, a trichloroacetic acid (TCA) protein precipitation protocol was employed. A 10 µL reaction mixture was incubated at 23°C for 1 h, followed by addition of 50 µL of 10% TCA. The mixture was transferred to filter plates (Millipore, Billerica, MA, USA) that were centrifuged at 2000 rpm (Allegra X-15R; Beckman Coulter, Brea, CA, USA) for 2 min. Samples were washed twice with 10% TCA and once with ethanol (180 µL), and centrifuged. After drying, 100 µL MicroScint-O (Perkin Elmer) was added to each well and the plates were centrifuged to remove the liquid. A 70 µL volume of MicroScint-O was added and the CPM was measured with a TopCount plate reader.

[3] = Exp1, Exp2, read-out: Activity %

Row | SMILES | Methyltransferase selectivity (in words) [1] | activity at 1 µM [2, 3] [%] | Activity % [2] [%] | activity at 10 µM [2, 3] [%] | activity at 1 µM ([2]; Exp1, Exp2) [%] | activity at 10 µM ([2]; Exp1, Exp2) [%]
1 | COc1cc(OC)cc(-c2noc(N3CCN(C)C4(CCN(c5ccccc5)CC4)C3)n2)c1 [MRK-740-NC] | no effect on activity of any of 33 MTs |  |  |  |  | 
2 | COc1cc(OC)cc(-c2noc(N3CCN(C)C4(CCN(c5ccnc(C)c5)CC4)C3)n2)c1 [MRK-740] | selective | 89 | 99 | 95 |  | 
3 | COc1cc(OC)cc(-c2noc(N3CCN(C)C4(CCN(c5ccccc5)CC4)C3)n2)c1 [MRK-740 -NC] |  |  | 93 |  | 97 | 95
